# Measurements from PMC6269819, “Evaluation of the Biological Activity of Naturally Occurring 5,8-Dihydroxycoumarin” (Molecules, 2013).
# Marks after values point to notes of the source that are not given here.
# Tests used:
# [1] = tested on: Wistar rat bone marrow cells; test: Micronucleus in vivo assay in rat bone marrow; details: single i.p. 30 mg/kg b.w., sacrifice 24 h
# From the text: Male albino Wistar rats aged 8–10 weeks and having body weight of 200–220 g, were used in the present study. The animals were supplied by the Animal Facility of the Department of Immunology, State Research Institute Center for Innovative Medicine. Ethical approval was given by the Committee of the Lithuanian Animal Care and Use. Prior to the start of the study, the animals were acclimatized for 7 days. They were housed under conditions of constant temperature, humidity and a light/dark cycle of 12 h/12 h with free access to standard commercial pellet diet and drinking water. The animals were randomly distributed into 11 experimental groups of six rats each.
# We used a mixture of dimethylsulfoxide (DMSO) and sunflower oil (1:2) as the vehicle for 5,8-DHC (5,8-DHC was dissolved in DMSO and adjusted to the desired dose with sunflower oil immediately before administration). For the acute treatment, the animals received single intraperitoneal (i.p.) injections of 10 or 20 mg/kg of 5,8-DHC in 1 mL volume per 100 g body weight (b.w.). The negative control group comprised animals, given a single i.p. injection of vehicle (1 mL/100 g b.w.) and the positive control group, given cyclophosphamide (CP, 30 mg/kg adjusted in 0.5 mL/100 g b.w. in sterile physiological saline). A commercial form of cyclophosphamide was used (‘Endoxan’, ASTA Medica AG, Frankfurt, Germany). Blank controls comprised untreated animals. For the repeated treatment, 5,8-DHC (10 or 20 mg/kg) or vehicle was administered via gavage (1 mL/100 g b.w.) once a day for 3 consecutive days. Animals were sacrificed 24 h or 48 h after the last dose administration. Colchicine was applied i.p. at a dose of 2 mg/kg b.w. in 1 mL volume 90 min before sacrifice. Both femurs were dissected from each animal and used to obtain bone marrow preparations for the analysis of chromosome aberrations and micronucleus.
# The bone marrow MN assay was conducted according to the standard procedure. Ends of the femura were cut off and the bone marrow was washed out with 2 mL of heat-inactivated foetal calf serum (Biochrom AG, Berlin, Germany), mixed thoroughly to obtain a fine suspension and centrifuged for 5 min at 150 × g. The supernatant was discarded and the cell pellet was carefully re-suspended. At least two smears per animal were prepared and allowed to air dry prior to fixation with methanol. The slides were stained in May-Grünwald solution followed by Giemsa (both Merck), coded and scored blind by the same scorer under magnification of 1000× (Jenaval, Zeiss, Jena, Germany). Micronucleated polychromatic erythrocyte (MNPCE) frequencies were based on the observation of 2,000 immature polychromatic erythrocytes (PCEs). Bone marrow toxicity was monitored by a decrease of PCE to total erythrocytes (e.g., PCEs+NCEs, normochromatic erythrocytes). At least 1,000 bone marrow erythrocytes per animal were analysed.
# [2] = tested on: Wistar rat bone marrow cells; details: rats, single 30–40 mg/kg dose of CP; cited from earlier work
# [3] = tested on: Drosophila melanogaster wing cells; test: Somatic mutation and recombination test (SMART), wing spot test; assay type: in vivo; details: positive control, 50 μM MMS
# Protocol: The basic procedures for the D. melanogaster somatic mutation and recombination test (SMART) were performed according to Graf and co-workers. Two D. melanogaster strains (kindly provided by Dr. H. Frei, Zurich, Switzerland) were used in the present study: virgin females from the strain ORR/ORR; flr^3/ In (3LR) TM3, ri p^p sep l(3)89Aa bx^34e e Bd^S were mated with mwh/mwh males. The ORR strain has chromosomes 1 and 2 from a DDT-resistant Oregon line, which are characterized by constitutively over-expressed CYP450 genes. The CYP 450 enzymes play the main role in the bioactivation of xenobiotics, as well as natural products including phytochemicals. Thus, the use of this high-bioactivation strain of D. melanogaster facilitates the detection of promutagens of numerous classes of compounds. The markers mwh (multiple wing hairs) and flr^3 (misshapen, flare-like hairs) are recessive wing-hair mutations located on the third chromosome at 0.3 and 38.8 respectively.
# Eggs from the crosses were collected over 10 h periods. Progeny were raised on the Instant Drosophila Medium (Sigma Chemical Co., St. Louis, MO, USA) at 25 °C. Two schedules of the larvae treatment were applied. Firstly, the crossed flies were permitted to lay eggs for 10 h in vials containing medium prepared with 5,8-DHC solution. Thus, the exposure duration was about 120 h (i.e., evolutionary period from fly egg till case-worm). According to the second schedule, the 72 ± 5 h-old larvae were exposed to 5,8-DHC by adding test solution to the surface of the medium and were fed on this medium for the rest of their development, during approximately 48 h. 5,8-DHC was dissolved in ethanol and then diluted with distilled water to the desired concentration, with the final ethanol concentration 5% v/v. The solutions were always prepared immediately before use. Solvent controls were included in all treatments. Methyl methanesulfonate was included in the assay as a positive control. Trans-heterozygous (mwh flr^+ / mwh^+ flr^3) flies were collected and stored in a 70% ethanol. The wings of adult flies were mounted on glass slides in Faure’s solution, coded and scored at 400× magnification (Nikon E200) for the presence of single (mwh or flr^3 phenotype) or twin (adjacent mwh and flr^3 clones) spots. The spots were recorded according to standard procedures. No less than 40 wings were analysed per each experimental point. Two repeated experiments were carried out.
# [4] = tested on: human lymphocytes; test: Chromosome aberrations in human lymphocyte cultures in vitro; assay type: cell-based; details: female, human, 24 h, 0.02 µL/mL
# Protocol: Blood samples were taken from two healthy female volunteers (donor A) and (donor B). Whole peripheral blood was grown in HEPES-buffered RPMI 1640 medium supplemented with 12% heat-inactivated newborn calf serum, 7.8 μg/mL phytohemagglutinin P, 50 μg/mL gentamycin, 10 μg/mL 5-bromo-2'-deoxyuridine. All reagents used for the cell culture were purchased from Sigma-Aldrich Chemical Co. (St. Louis, MO, USA). Cell cultures were incubated at 37 °C for 72 h. Treatment with test compounds was carried out 48 h after culture initiation and lasted for the period of 24 h. Dose range of 5,8-DHC (10 to 40 µg/mL) was based on pilot experiments (data not shown). As whole blood cultures display many properties common with the liver microsomal cytochrome P450 system, no external metabolising enzymes were added. 5,8-DHC was dissolved in ethanol and then diluted with RPMI 1640 medium to the desired concentration. Ethanol in a final concentration of 7.5µL/mL was used as a solvent control. […] Working solutions were made just before treatment. Two parallel cultures were used for each concentration of the compound tested. Two cultures were left untreated and served as a blank control. Methyl methanesulfonate (MMS) in a final concentration of 0.02 μL/mL was used as a positive control. The cultures were exposed to colchicine at a final concentration of 0.6 μg/mL for the last 3 h of incubation. The cells were harvested, hypotonically swollen in 0.075 M KCl and fixed in methanol: acetic acid (3:1). Air-dried slides were differentially stained by fluorescence plus Giemsa technique as has been described previously. Briefly, the slides were stained for 10 min. with 10 μg/mL of Hoechst 33258 dye (dissolved in 0.07 M Soerensen’s buffer, pH 6.8). Then the slides were rinsed, mounted with citrate buffer (pH 8.5), covered with cover slips and exposed to UV light (400 W mercury lamp at a distance of 15 cm) for 6–7 min. Slides were then rinsed and stained for 3–4 min. with 5% Giemsa. Cytogenetic analysis was performed on coded slides. No less than 100 first-mitotic division metaphases per culture were analysed for CAs, and no less than 50 second-division metaphases for SCEs.
# [5] = tested on: male rat hepatocytes; details: cited from earlier work
# [6] = tested on: Chinese hamster ovary (CHO) cells; details: doses up to 333 μM; cited from earlier work
compound,measurement,setting,value
"O=P1(N(CCCl)CCCl)NCCCO1 (stereo not drawn) [CP, cyclophosphamide, reference compound]",MNPCE (%± S.E.M.),[1],1.67 ± 0.22 ^a %
same,PCE (%± S.E.M.),[1],34.8 ± 6.4%
same,frequency of abnormal metaphases,[2],16–21%
"COS(C)(=O)=O [MMS, Methyl methanesulfonate, reference compound]",large single spots,[3],4.63
same,small single spots,[3],1.65
same,total spots per wing,[3],7.15 spots per wing
same,twin spots,[3],0.88
same,wings with spots,[3],100%
same,CA per 100 cells (±S.E.M.),[4],12.0 ± 3.2 ^b per 100 cells
"O=c1ccc2ccccc2o1 [coumarin, 1,2-benzopyrone]",induction of UDS,"[5]; oral administration, doses up to 320 mg/kg bw",does not induce UDS
same,maximum tolerated dose,"[5]; rat, in vivo, po",320 mg/kg bw
"O=c1ccc2ccc(O)cc2o1 [umbelliferone, 7-hydroxycoumarin]",increase in SCE or chromosome aberration,[6],no evidence of increase
